Source: patent publication US7064120B2, “Tricyclic pyridyl carboxamides and derivatives thereof tocolytic oxytocin receptor antagonists” (Wyeth, priority 2001, dated 2006)

The compounds below were run against T1, human vasopressin V1a receptor subtype (Homo sapiens, UniProt P37288) (assay: Vasopressin binding in CHO cell membranes expressing human vasopressin V1a subtype receptors ([3H]Manning ligand radioligand binding)). Details: 100 nM.
T1 construct: host or cells: CHO cells, stably transfected (pZeoSV vector for the Thibonnier line)
T1 sequence (P37288 whole entry): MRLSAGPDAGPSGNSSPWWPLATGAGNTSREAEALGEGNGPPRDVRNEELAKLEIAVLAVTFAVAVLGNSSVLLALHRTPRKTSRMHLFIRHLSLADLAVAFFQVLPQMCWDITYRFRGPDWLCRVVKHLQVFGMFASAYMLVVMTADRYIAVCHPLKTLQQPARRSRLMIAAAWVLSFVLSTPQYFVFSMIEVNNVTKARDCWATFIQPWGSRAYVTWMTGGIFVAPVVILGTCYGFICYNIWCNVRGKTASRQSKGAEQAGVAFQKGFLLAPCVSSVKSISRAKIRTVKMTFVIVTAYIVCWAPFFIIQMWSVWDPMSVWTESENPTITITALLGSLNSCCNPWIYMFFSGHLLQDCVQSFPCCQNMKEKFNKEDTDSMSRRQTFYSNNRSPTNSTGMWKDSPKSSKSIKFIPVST
Experimental: Vasopressin Binding in Chinese Hamster Ovary Cell Membranes Expressing Human Vasopressin V1a Subtype Receptors
The trypsin is removed by aspiration and the cells dislodged by tapping. Cell Culture medium (e.g. 30 mL for 1:30 split) is immediately added and mixed well to inactivate trypsin. 1 mL of detached cells is added to new culture flasks containing fresh cell culture medium (e.g., into 25 mL per T-150 flask), and mixed gently. The cells are incubated at 37° C. in 5% CO2. The medium is changed at 3 to 4 days interval (or as appropriate). […] All steps are done under sterile conditions.
The cells are washed twice gently with Hank's Balanced Salt solution (e.g,. use 10 mL per T-150 flask). […] The contents are transferred to centrifuge tubes (50 mL) kept in an ice bath. All subsequent steps are done at 4° C. The tubes are centrifuged at 300×g for 15 min (1380 rpm on SORVAL, Model RT6000D, using the rotor for 50 mL tubes). The supernatant is discarded and the cells suspended in homogenizing buffer(10 mM Tris-HCl containing 0.25 M sucrose and 1 mM EDTA, pH 7.4) ensuring that the volume of the buffer is about ten times the volume of the cell pellet. The cells are pooled into a centrifuge tube (50 mL) and homogenized with Polytron at setting 6 for 10 sec. The homogenate is transferred into a Potter-Elvjehm homogenizer and homogenized with 3 strokes. The homogenate is centrifuged at 1500×g for 10 min at 4° C. (3100 rpm using SORVAL, model RT6000D, using the rotor for 50 mL tubes). The pellet is discarded. The supernatant is centrifuged at 100,000×g for 60 min. at 4° C. (Beckman L8-80M ultracentrifuge; spin at 37,500 rpm with rotor type 70 Ti for 50 mL tubes; 38,000 rpm with type 80Ti for 15 mL tubes; or 35,800 rpm with rotor type 45Ti). The supernantant is discarded and the pellet suspended in 3 to 4 mL of Tris buffer (50 mM TRIS-HCl, pH 7.4). The protein content is estimated by the Bradford or Lowry method. The volume of the membrane suspension is adjusted with the membrane buffer (50 mM Tris-HCl containing 0.1% BSA and 0.1 mM PMSF) to give 3.0 mg/mL (or as appropriate) of protein. The membranes are aliquoted and stored at −70° C.
In wells of a 96-well format microtiter plate, is added 90, 110 or 130 μL (to make up a final volume of 200 μL) of assay buffer containing 50 mM of Tris-HCl (pH 7.4), BSA (heat inactivated, protease-free), […], 1 mg % aprotinin, 1 mg % leupeptin, 2 mg % 1,10-phenanthroline, 10 mg % trypsin inhibitor, and 0.1 mM PMSF. The inhibitors are added on the day of the experiment. The components are mixed at room temperature, and then kept in ice bath following adjustment of the pH to 7.4. […] 20 μL of 50% DMSO is added for Manning and other peptide ligands and the assay buffer volume is adjusted accordingly. To each well is added 50 μL of frozen membrane suspension thawed immediately prior to use and diluted in the assay buffer to the required concentration (equivalent to 25 to 50 μg of protein/well as needed). 20 μL of 8 nM [^3H]Manning ligand in the assay buffer, prepared just before use, is added, and incubated at room temperature for 60 min. shaking the plate on a mechanical shaker for the first 15 min. The incubation is stopped by rapid filtration of the plate contents followed by wash with ice-cold buffer (50 mM Tris-HCl, pH 7.4) using a cell harvester (Tomtek and Printed filtermat-B filter paper). The filter paper is thoroughly dried (7–12 min. in a microwave oven) and impregnated with MeltiLex B/H melt-on scintillation wax sheets and the radioactivity counted in a betaplate scintillation counter.
Binding data is either reported as percent inhibition at a certain concentration or if an IC50 was calculated, as a nanomolar concentration.

| Structure (SMILES) | inhibition at 0.1 µM [%] | V1a % inhibition @ 100 nM [%] |
| --- | --- | --- |
| COc1cc(C(=O)N2Cc3ccc(C(=O)NCc4cccnc4)n3Cc3ccccc32)ccc1-c1cccc2ccccc12 [Example 44, 10-[3-Methoxy-4-(naphthalen-1-yl)benzoyl]-N-(3-pyridinylmethyl)-10,11-dihydro-5H-pyrrolo[2,1-c][1,4]benzodiazepine-3-carboxamide] | 11 |  |
| COc1ccccc1-c1ccc(C(=O)N2Cc3ccc(C(=O)NCc4cccnc4)n3Cc3ccccc32)cc1OC [Example 45, 10-[(2,2′-Dimethoxy-[1,1′-biphenyl]-4-yl)carbonyl]-N-(3-pyridinylmethyl)-10,11-dihydro-5H-pyrrolo[2,1-c][1,4]benzodiazepine-3-carboxamide] | 5 |  |
| COc1cccc(-c2ccc(C(=O)N3Cc4ccc(C(=O)NCc5cccnc5)n4Cc4ccccc43)cc2OC)c1 [Example 46, 10-[(2,3′-Dimethoxy-[1,1′-biphenyl]-4-yl)carbonyl]-N-(3-pyridinylmethyl)-10,11-dihydro-5H-pyrrolo[2,1-c][1,4]benzodiazepine-3-carboxamide] | 7 |  |
| O=C(NCc1cccnc1)c1ccc2n1Cc1ccccc1N(C(=O)c1ccc(-c3cccc4ccccc34)cc1Cl)C2 [Example 47, 10-[2-Chloro-4-(naphthalen-1-yl)benzoyl]-N-(3-pyridinylmethyl)-10,11-dihydro-5H-pyrrolo[2,1-c][1,4]benzodiazepine-3-carboxamide] | -1 |  |
| Cc1cc(C(=O)N2Cc3ccc(C(=O)NCc4cccnc4)n3Cc3ccccc32)ccc1-c1ccccc1C(F)(F)F [Example 48, 10-{[2-Methyl-2′-trifluoromethyl-[1,1′-biphenyl]-4-yl]carbonyl}-N-(3-pyridinylmethyl)-10,11-dihydro-5H-pyrrolo[2,1-c][1,4]benzodiazepine-3-carboxamide] | 0 |  |
| COc1ccccc1-c1ccc(C(=O)N2Cc3ccc(C(=O)NCCc4ccccn4)n3Cc3ccccc32)cc1C [Example 49, 10-[(2′-Methoxy-2-methyl-[1,1′-biphenyl]-4-yl)carbonyl]-N-[2-(2-pyridinyl)ethyl]-10,11-dihydro-5H-pyrrolo[2,1-c][1,4]benzodiazepine-3-carboxamide] | 1 |  |
| Cc1ccccc1-c1ccc(C(=O)N2Cc3ccc(C(=O)NCCc4ccccn4)n3Cc3ccccc32)cc1C [Example 50, 10-[(2,2′-Dimethyl-[1,1′-biphenyl]-4-yl)carbonyl]-N-[2-(2-pyridinyl)ethyl]-10,11-dihydro-5H-pyrrolo[2,1-c][1,4]benzodiazepine-3-carboxamide] | 26 |  |
| COc1cccc(-c2ccc(C(=O)N3Cc4ccc(C(=O)NCCc5ccccn5)n4Cc4ccccc43)cc2C)c1 [Example 51, 10-[(3′-Methoxy-2-methyl-[1,1′-biphenyl]-4-yl)carbonyl]-N-[2-(2-pyridinyl)ethyl]-10,11-dihydro-5H-pyrrolo[2,1-c][1,4]benzodiazepine-3-carboxamide] | 2 |  |
| COc1ccccc1-c1ccc(C(=O)N2Cc3ccc(C(=O)NCCc4ccccn4)n3Cc3ccccc32)cc1 [Example 52, 10-[(2′-Methoxy-[1,1′-biphenyl]-4-yl)carbonyl]-N-[2-(2-pyridinyl)ethyl]-10,11-dihydro-5H-pyrrolo[2,1-c][1,4]benzodiazepine-3-carboxamide] | 16 |  |
| Cc1ccccc1-c1ccc(C(=O)N2Cc3ccc(C(=O)NCCc4ccccn4)n3Cc3ccccc32)cc1 [Example 53, 10-[(2′-Methyl-[1,1′-biphenyl]-4-yl)carbonyl]-N-[2-(2-pyridinyl)ethyl]-10,11-dihydro-5H-pyrrolo[2,1-c][1,4]benzodiazepine-3-carboxamide] | 11 |  |
| COc1cc(C(=O)N2Cc3ccc(C(=O)NCCc4ccccn4)n3Cc3ccccc32)ccc1-c1ccccc1C [Example 54, 10-[(2-Methoxy-2′-methyl-[1,1′-biphenyl]-4-yl)carbonyl]-N-[2-(2-pyridinyl)ethyl]-10,11-dihydro-5H-pyrrolo[2,1-c][1,4]benzodiazepine-3-carboxamide] | 30 |  |
| COc1cc(-c2ccccc2C)c(Cl)cc1C(=O)N1Cc2ccc(C(=O)NCCc3ccccn3)n2Cc2ccccc21 [Example 55, 10-[(6-Chloro-3-methoxy-2′-methyl-[1,1′-biphenyl]-4-yl)carbonyl]-N-[2-(2-pyridinyl)ethyl]-10,11-dihydro-5H-pyrrolo[2,1-c][1,4]benzodiazepine-3-carboxamide] | -7 |  |
| COc1cccc(-c2cc(OC)c(C(=O)N3Cc4ccc(C(=O)NCCc5ccccn5)n4Cc4ccccc43)cc2Cl)c1 [Example 56, 10-[(6-Chloro-3,3′-dimethoxy-[1,1′-biphenyl]-4-yl)carbonyl]-N-[2-(2-pyridinyl)ethyl]-10,11-dihydro-5H-pyrrolo[2,1-c][1,4]benzodiazepine-3-carboxamide] | -11 |  |
| COc1cc(C(=O)N2Cc3ccc(C(=O)NCCc4ccccn4)n3Cc3ccccc32)ccc1-c1cccc2ccccc12 [Example 57, 10-[3-Methoxy-4-(naphthalen-1-yl)benzoyl]-N-[2-(2-pyridinyl)ethyl]-10,11-dihydro-5H-pyrrolo[2,1-c][1,4]benzodiazepine-3-carboxamide] | 2 |  |
| COc1ccccc1-c1ccc(C(=O)N2Cc3ccc(C(=O)NCCc4ccccn4)n3Cc3ccccc32)cc1OC [Example 58, 10-[(2,2′-Dimethoxy-[1,1′-biphenyl]-4-yl)carbonyl]-N-[2-(2-pyridinyl)ethyl]-10,11-dihydro-5H-pyrrolo[2,1-c][1,4]benzodiazepine-3-carboxamide] | 9 |  |
| COc1cccc(-c2ccc(C(=O)N3Cc4ccc(C(=O)NCCc5ccccn5)n4Cc4ccccc43)cc2OC)c1 [Example 59, 10-[(2,3′-Dimethoxy-[1,1′-biphenyl]-4-yl)carbonyl]-N-[2-(2-pyridinyl)ethyl]-10,11-dihydro-5H-pyrrolo[2,1-c][1,4]benzodiazepine-3-carboxamide] | 12 |  |
| O=C(NCCc1ccccn1)c1ccc2n1Cc1ccccc1N(C(=O)c1ccc(-c3cccc4ccccc34)cc1Cl)C2 [Example 60, 10-[2-Chloro-4-(naphthalen-1-yl)benzoyl]-N-[2-(2-pyridinyl)ethyl]-10,11-dihydro-5H-pyrrolo[2,1-c][1,4]benzodiazepine-3-carboxamide] | 4 |  |
| Cc1cc(C(=O)N2Cc3ccc(C(=O)NCCc4ccccn4)n3Cc3ccccc32)ccc1-c1ccccc1C(F)(F)F [Example 61, 10-{[2-Methyl-2′-trifluoromethyl=[1,1′-biphenyl]-4-yl]carbonyl}-N-[2-(2-pyridinyl)ethyl]-10,11-dihydro-5H-pyrrolo[2,1-c][1,4]benzodiazepine-3-carboxamide] |  | 6 |
| COc1ccccc1-c1ccc(C(=O)N2Cc3ccc(C(=O)N(C)CCc4ccccn4)n3Cc3ccccc32)cc1OC [Example 64, 10-[(2,2′-Dimethoxy-[1,1′-biphenyl]-4-yl)carbonyl]-N-methyl-N-[2-(2-pyridinyl)ethyl]-10,11-dihydro-5H-pyrrolo[2,1-c][1,4]benzodiazepine-3-carboxamide] | 21 |  |
| COc1cc(C(=O)N2Cc3ccc(C(=O)N4CCN(c5ccccn5)CC4)n3Cc3ccccc32)ccc1-c1cccc2ccccc12 [Example 83] |  | 9 |
| COc1cccc(-c2ccc(C(=O)N3Cc4ccc(C(=O)NCc5ccncc5)n4Cc4ccccc43)cc2OC)c1 [Example 98] |  | 24 |
